Results as given in EPA's ToxRefDB 2.

Experiments:
[1] = system: dog; settings: Chronic toxicity, beagle, Oral, Feed, dose end: 6 month, group: systemic
[2] = system: rat; settings: Subchronic oral toxicity in rodents, Feed, dose end: 90 day, group: systemic
[3] = system: mouse; settings: Subchronic oral toxicity in rodents, Feed, dose end: 90 day, group: systemic
[4] = system: mouse; settings: Carcinogenicity; other; Oral; Feed; dose end: 104 week; group: systemic; systemic / pathology microscopic / liver / vacuolization
[5] = system: dog; settings: Subchronic oral toxicity in nonrodent, beagle, Feed, dose end: 6 month, group: systemic, systemic / clinical chemistry / alkaline phosphatase (alp/alk) / alkaline phosphatase (alp/alk) + systemic / organ weight / liver / absolute…
[6] = system: rat; settings: Prenatal developmental toxicity study, other, Oral, Gavage/Intubation, dose end: 15 GD
[7] = system: rat; settings: Combined chronic toxicity/carcinogenicity, sprague dawley, Oral, Feed, dose end: 105 week, group: systemic
[8] = system: rat; settings: Subchronic oral toxicity in rodents, fischer, Gavage/Intubation, dose end: 13 week
[9] = system: rat; settings: Carcinogenicity, fischer, Oral, Gavage/Intubation, dose end: 105 week, group: systemic
[10] = system: mouse; settings: Subchronic oral toxicity in rodents, b6c3f1, Gavage/Intubation, dose end: 22 week, group: systemic, systemic / in life observation / clinical signs / aggressive behavior + systemic / in life observation / clinical signs / convulsions + …
[11] = system: rat; settings: Subchronic oral toxicity in rodents, fischer, Gavage/Intubation, dose end: 13 week, group: systemic, systemic / in life observation / clinical signs / aggressive behavior + systemic / in life observation / clinical signs / hypersensitivity…
[12] = system: mouse; settings: Subchronic oral toxicity in rodents, b6c3f1, Gavage/Intubation, dose end: 13 week
[13] = systemic / clinical chemistry / alkaline phosphatase (alp/alk) / alkaline phosphatase (alp/alk) + systemic / hematology / erythrocyte (rbc) …
[14] = systemic / organ weight / liver / absolute + systemic / organ weight / liver / relative to body weight
[15] = systemic / organ weight / liver / absolute + systemic / organ weight / liver / relative to body weight + systemic / pathology microscopic / …
[16] = systemic / organ weight / liver / absolute + systemic / organ weight / liver / relative to body weight + systemic / clinical chemistry / …
[17] = group: developmental, developmental / developmental malformation / bone / absent + developmental / developmental malformation / bone / incomplete ossification + …
[18] = group: maternal, systemic / in life observation / clinical signs / convulsions + systemic / in life observation / clinical signs / fur (altered appearance…
[19] = systemic / pathology microscopic / liver / vacuolization
[20] = systemic / pathology microscopic / liver / vacuolization + systemic / organ weight / liver / absolute + systemic / organ weight / liver / …
[21] = group: maternal, reproductive / reproductive performance / estrous cycle / abnormal
[22] = group: systemic, systemic / in life observation / body weight / body weight + systemic / in life observation / body weight / body weight gain
[23] = group: systemic, systemic / in life observation / clinical signs / aggressive behavior + systemic / in life observation / clinical signs / reactivity to …
[24] = systemic / in life observation / clinical signs / [other] + systemic / in life observation / clinical signs / convulsions
[25] = systemic / in life observation / clinical signs / [other] + systemic / in life observation / clinical signs / convulsions + systemic / …
[26] = group: systemic, systemic / in life observation / clinical signs / aggressive behavior + systemic / in life observation / clinical signs / convulsions + …

What does the source list for `COCC(=O)N(c1c(C)cccc1C)C(C)C(=O)OC` (stereo not given) [Metalaxyl]?
LOAEL ([1]; systemic / clinical chemistry / alkaline phosphatase (alp/alk) / alkaline phosphatase (alp/alk)): 30.6 mg/kg/day; LEL [1, 13]: 30.6 mg/kg/day; NEL [1, 13]: 7.8 mg/kg/day; NOAEL [1, 13]: 7.8 mg/kg/day; LEL [2, 14]: 2.5 mg/kg/day; NEL [2, 14]: < 2.5 mg/kg/day; LOAEL [2, 15]: > 62.5 mg/kg/day; NOAEL [2, 15]: ≥ 62.5 mg/kg/day; LEL [3, 14]: 188 mg/kg/day; NEL [3, 14]: < 188 mg/kg/day; LOAEL [3, 16]: > 750 mg/kg/day; NOAEL [3, 16]: ≥ 750 mg/kg/day; LEL [4]: 129 mg/kg/day; LOAEL [4]: 129 mg/kg/day; NEL [4]: 24.9 mg/kg/day; NOAEL [4]: 24.9 mg/kg/day; LEL [5]: 30.6 mg/kg/day; LOAEL [5]: 30.6 mg/kg/day; NEL [5]: 7.8 mg/kg/day; NOAEL [5]: 7.8 mg/kg/day; LEL [6, 17]: 400 mg/kg/day; LOAEL [6, 17]: 400 mg/kg/day; NEL [6, 17]: 250 mg/kg/day; NOAEL [6, 17]: 250 mg/kg/day; LEL [6, 18]: 250 mg/kg/day; LOAEL [6, 18]: 250 mg/kg/day; NEL [6, 18]: 50 mg/kg/day; NOAEL [6, 18]: 50 mg/kg/day; LEL [7, 19]: 1.88 mg/kg/day; NEL [7, 19]: < 1.88 mg/kg/day; LOAEL [7, 20]: 46.6 mg/kg/day; NOAEL [7, 20]: 9.43 mg/kg/day

How did the LEL [8, 21] turn out when `CCCCCc1cc(O)c2c(c1)OC(C)(C)[C@@H]1CCC(C)=C[C@@H]21` [1-trans-delta-9-Tetrahydrocannabinol] was run?
The LEL was 15 mg/kg/day.

What about the LOAEL [8, 21] of the same compound?
The LOAEL was greater than 500 mg/kg/day.

And the NEL [8, 21]?
Its NEL is 5 mg/kg/day.

What about the NOAEL [8, 21] of the same compound?
Its NOAEL is no less than 500 mg/kg/day.

And the LOAEL [8, 22]?
Its LOAEL is 15 mg/kg/day.

And the LEL [8, 23]?
Its LEL is 5 mg/kg/day.

What about the NEL [8, 23] of the same compound?
Its NEL is less than 5 mg/kg/day.

And the NOAEL [8, 23]?
The NOAEL was 5 mg/kg/day.

And the LOAEL [9, 24]?
Its LOAEL is 12.5 mg/kg/day.

What about the NOAEL [9, 24] of the same compound?
The NOAEL was less than 12.5 mg/kg/day.

And the LEL [9, 25]?
The LEL was 12.5 mg/kg/day.

And the NEL [9, 25]?
The NEL was less than 12.5 mg/kg/day.

And the LEL [10]?
Its LEL is 5 mg/kg/day.

What about the LOAEL [10] of the same compound?
The LOAEL was greater than 500 mg/kg/day.

And the NEL [10]?
The NEL was less than 5 mg/kg/day.

What about the NOAEL [10] of the same compound?
Its NOAEL is no less than 500 mg/kg/day.

And the LEL [11]?
Its LEL is 5 mg/kg/day.

And the LOAEL [11]?
The LOAEL was greater than 500 mg/kg/day.

What about the NEL [11] of the same compound?
Its NEL is less than 5 mg/kg/day.

And the NOAEL [11]?
The NOAEL was no less than 500 mg/kg/day.

What about the LEL [12, 21] of the same compound?
Its LEL is 5 mg/kg/day.

And the LOAEL [12, 21]?
The LOAEL was greater than 500 mg/kg/day.

What about the NEL [12, 21] of the same compound?
Its NEL is less than 5 mg/kg/day.

And the NOAEL [12, 21]?
Its NOAEL is no less than 500 mg/kg/day.

And the LOAEL [12, 22]?
The LOAEL was 500 mg/kg/day.

What about the LEL [12, 26] of the same compound?
The LEL was 5 mg/kg/day.

And the NEL [12, 26]?
Its NEL is less than 5 mg/kg/day.

And the NOAEL [12, 26]?
Its NOAEL is 150 mg/kg/day.
